Where two headings read alike, the source gives them in different places.
Legend:
[1] = biological target: T1, E1p-ec (Escherichia coli, UniProt P0AFG8); assay: CD titration of E1p-ec by acetylphosphinate; type: binding; settings: for Kd: read-out: Kd,AcPhi
[2] = biological target: T2, E1p-h (Homo sapiens, UniProt P08559+P11177); settings: read-out: Ki,AcPhi; cited from earlier work
T2 sequence (P08559 30-390): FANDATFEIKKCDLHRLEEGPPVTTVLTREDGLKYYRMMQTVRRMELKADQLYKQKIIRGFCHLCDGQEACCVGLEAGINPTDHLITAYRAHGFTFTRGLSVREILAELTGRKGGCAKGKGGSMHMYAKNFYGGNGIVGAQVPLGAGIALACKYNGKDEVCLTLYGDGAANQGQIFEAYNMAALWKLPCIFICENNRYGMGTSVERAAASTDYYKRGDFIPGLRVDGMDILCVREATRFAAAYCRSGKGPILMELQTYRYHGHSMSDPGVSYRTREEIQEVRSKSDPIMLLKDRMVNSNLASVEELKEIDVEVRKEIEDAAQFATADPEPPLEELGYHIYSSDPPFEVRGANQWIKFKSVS
T2 sequence (P11177 31-359): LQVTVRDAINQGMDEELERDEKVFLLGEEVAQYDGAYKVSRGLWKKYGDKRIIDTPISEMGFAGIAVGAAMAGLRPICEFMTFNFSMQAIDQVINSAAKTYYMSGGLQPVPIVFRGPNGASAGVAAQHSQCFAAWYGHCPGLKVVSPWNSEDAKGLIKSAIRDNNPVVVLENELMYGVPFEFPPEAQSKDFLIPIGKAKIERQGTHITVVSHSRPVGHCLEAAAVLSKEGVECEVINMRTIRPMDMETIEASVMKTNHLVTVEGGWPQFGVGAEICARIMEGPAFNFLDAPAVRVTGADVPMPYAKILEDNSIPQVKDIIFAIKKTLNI

[3] = biological target: T1, E1p-ec; settings: read-out: Kd,AcPhi; E1p-ec with ThDP; cited from earlier work
[4] = biological target: T2, E1p-h; assay: CD titration of E1p-h by acetylphosphinate; type: binding; settings: read-out: Kd,AcPhi
[5] = biological target: T1, E1p-ec; settings: read-out: Ki,AcPhi, reversible tight-binding inhibitor; cited from earlier work
[6] = biological target: DXPS (Escherichia coli, UniProt P77488); assay: CD titration of apo-DXPS with ThTTDP; type: binding; settings: for Kd: read-out: Kd,ThTTDP, CD titration, CD331
Sequence of DXPS (P77488 whole entry): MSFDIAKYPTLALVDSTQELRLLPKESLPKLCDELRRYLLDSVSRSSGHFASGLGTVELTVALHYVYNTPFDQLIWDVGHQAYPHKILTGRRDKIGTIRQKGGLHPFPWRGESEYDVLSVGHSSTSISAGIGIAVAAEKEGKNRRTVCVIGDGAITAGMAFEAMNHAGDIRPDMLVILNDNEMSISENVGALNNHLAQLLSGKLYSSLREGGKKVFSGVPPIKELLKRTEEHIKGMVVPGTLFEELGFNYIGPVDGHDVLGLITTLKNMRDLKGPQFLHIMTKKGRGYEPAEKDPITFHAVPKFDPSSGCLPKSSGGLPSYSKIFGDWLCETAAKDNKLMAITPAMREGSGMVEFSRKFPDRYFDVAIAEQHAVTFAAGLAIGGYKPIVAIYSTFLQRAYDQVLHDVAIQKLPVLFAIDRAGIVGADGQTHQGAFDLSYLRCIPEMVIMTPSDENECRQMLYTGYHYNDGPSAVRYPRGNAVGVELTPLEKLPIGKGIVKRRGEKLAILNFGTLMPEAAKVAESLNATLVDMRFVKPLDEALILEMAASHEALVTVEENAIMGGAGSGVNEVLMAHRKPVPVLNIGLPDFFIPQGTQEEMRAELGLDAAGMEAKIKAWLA

[7] = UV spectroscopic determination of the pKa for N1-protonated bacimethrin; type: physicochemical; settings: aqueous triple buffer
[8] = in the presence of 10 µM MeOThDP

T1 sequence (P0AFG8 2-887 limits assumed): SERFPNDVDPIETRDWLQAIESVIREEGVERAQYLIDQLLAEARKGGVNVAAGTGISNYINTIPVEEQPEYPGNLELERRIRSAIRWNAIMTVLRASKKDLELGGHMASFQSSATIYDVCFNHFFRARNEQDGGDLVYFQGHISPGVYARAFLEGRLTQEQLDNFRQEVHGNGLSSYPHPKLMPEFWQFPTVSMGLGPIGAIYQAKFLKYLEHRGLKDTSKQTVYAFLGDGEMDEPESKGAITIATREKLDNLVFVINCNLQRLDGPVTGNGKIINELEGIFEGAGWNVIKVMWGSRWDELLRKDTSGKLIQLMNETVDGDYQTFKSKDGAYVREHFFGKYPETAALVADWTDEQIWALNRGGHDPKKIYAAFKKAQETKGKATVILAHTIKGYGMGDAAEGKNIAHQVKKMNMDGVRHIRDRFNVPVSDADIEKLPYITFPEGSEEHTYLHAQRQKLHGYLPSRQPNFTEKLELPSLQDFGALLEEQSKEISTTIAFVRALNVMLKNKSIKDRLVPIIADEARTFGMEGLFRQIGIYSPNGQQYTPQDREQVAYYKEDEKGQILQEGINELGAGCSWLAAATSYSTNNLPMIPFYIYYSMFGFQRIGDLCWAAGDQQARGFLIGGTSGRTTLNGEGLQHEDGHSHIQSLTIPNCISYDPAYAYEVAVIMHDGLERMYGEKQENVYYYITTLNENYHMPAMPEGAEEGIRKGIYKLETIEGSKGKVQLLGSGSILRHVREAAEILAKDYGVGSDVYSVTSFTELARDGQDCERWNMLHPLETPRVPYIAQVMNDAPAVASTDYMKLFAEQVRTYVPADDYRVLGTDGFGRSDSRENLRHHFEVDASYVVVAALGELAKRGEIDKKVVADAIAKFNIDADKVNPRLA

With CC(=O)[PH](=O)[O-].[Na+] [AcPhi, acetylphosphinic acid sodium salt] the “[AcPhi]/[E1p-ec] molar ratio at maximal CD intensity” value ([1]; E1p-ec complexed with ThDP) was 1/1, the Kd ([1]; E1p-ec complexed with 0.20 mM MeOThDP, CD303) was 1880 nM and the Kd ([1]; E1p-ec complexed with 0.20 mM ThDP, CD319) was 36 nM. The Ki [2] was 14 nM, the Kd [3] was 62 nM and the Kd ([4]; E1p-h complexed with MeOThDP) was 1360 nM. The Kd ([4]; E1p-h complexed with ThDP, unpublished data) was 43 nM and the Ki [5] was 760 nM.
With Cc1ncc(Cn2c(C)c(CCOP(=O)(O)OP(=O)(O)O)sc2=S)c(N)n1 [ThTTDP, Thiamin 2-thiothiazolone diphosphate] the “[ThTTDP]/[DXPS active centers] molar ratio at saturation” value [6, 8] was 2.6, the “[ThTTDP]/[DXPS active centers] molar ratio at saturation” value ([6]; no MeOThDP) was 1.26 and the Kd [6, 8] was 600 ± 140 nM. It also gave a Kd ([6]; no MeOThDP) of 390 ± 100 nM.
COc1ncc(CO)c(N)n1 [bacimethrin, 4-amino-5-hydroxymethyl-2-methoxypyrimidine] gave a pKa [7] of 5.32 ± 0.03.
